These results are taken from patent US5972598A, “Methods for preventing multidrug resistance in cancer cells” (priority 1995, dated 1999).

Entries after “also recorded” stand apart in the source; their conditions may differ. Like-named read-outs stand apart in the source and are kept apart here.

In data set [1] the test system is MDR1. In kind it is cell-based, human. Here is the method: The times of drug exposure are indicated.
(§1) (Commercially-available kits (for example, from GIBCO/BRL, Gaithersburg, Md.) can be advantageously modified for making cDNA using random hexamers.) PCR is then performed using the following primers: […]
Next, it was tested whether drug-induced MDR1 expression was maintained after the cytotoxic treatment. […] At different time points, MDR1 expression in the surviving cells was analyzed by dye efflux and immunofluorescence labeling with UIC2 (FIG. 3c) or by cDNA-PCR (FIG. 4e).

The target in the next data set is P-glycoprotein (Homo sapiens, UniProt P08183). The experiment in a line: Rh123 accumulation assay of P-glycoprotein activity in human PBL. As to the method: KG1 cell line was maintained in Iscove's modified Dulbecco medium with 20% fetal calf serum (FCS) and 2 mM L-glutamine, 100 units/ml penicillin and 100 μg/ml streptomycin (GIBCO Laboratories, Grand Island, N.Y.).
A functional assay was used to detect changes in P-glycoprotein activity in human PBL treated with different agents that induce lymphoid differentiation or activation, based on flow cytometric analysis of cellular accumulation of Rh123, which is a P-glycoprotein-transported fluorescent mitochondrial dye. In this assay, cells expressing little or no P-glycoprotein stain brightly with Rh123, whereas cells with higher levels of P-glycoprotein activity appear Rh123-dull. […] Since the best-known cellular effect of TPA is the stimulation of PKC, it was also tested whether DOG, a cell-permeable diacylglycerol and a physiological stimulant of PKC, would have an effect on Rh123 accumulation in PBL.

Data set [2] deals with tumor. The settings on record: cited from earlier work; for antitumor activity in vivo: literature.
In data set [3] the test system is tumor. The settings on record: nude mice; Meyer et al., 1989; cited from earlier work.
Data set [4] deals with MDR1. The experiment in a line: Inhibition of cytotoxic drug (Ara-C) induced MDR1 expression by protein kinase inhibitors. It counts as cell-based, human. Here is the method:
FIG. 5. Effect of protein kinase inhibitors on MDR1 mRNA induction by cytotoxic drugs in H9 cells. […]
as §1
(where β2 M represents β2 microglobulin). PCR was performed for β2 M experiments under a regime consisting of 1 cycle comprising denaturation at 94° C. for 3 minutes, primer annealing at 60° C. for 30 seconds, and primer extension at 72° C. for 1 minute, followed by 19 cycles comprising denaturation at 94° C. for 30 seconds, primer annealing at 60° C. for 30 seconds, and primer extension at 72° C. for 1 minute, followed by a final cycle comprising denaturation at 94° C. for 30 seconds, primer annealing at 60° C. for 30 seconds, and primer extension at 72° C. for 5 minutes. MDR1 cDNA sequences were amplified using the identical protocol as for β2 M, but extending the amplification from 19 cycles to 25 cycles. In addition, the cDNA-PCR amplification protocol contained the following modifications: (i) Taq DNA polymerase was added to the PCR mixtures after initial heating of the samples to 94° C. (ii) The yield of the β2 -microglobulin-specific band, obtained after 22-28 cycles of PCR, was used as the primary criterion for equalizing the starting amounts of the cDNA templates in different preparations, in order to account for differential RNA degradation in cells subjected to different types of treatment. […] PCR products were detected by autoradiography.
Cells were plated in 6-well Falcon tissue culture plates at 3,300 cells per well, and incubated in the appropriate concentrations of drugs. Each of the protein kinase inhibitors to be tested were added at their appropriate final concentrations 45 minutes prior to MDR1 induction by the addition of Ara-C or TPA, with the exception of herbimycin A, which was added 12 hours prior to Ara-C or TPA, and tyrphostins A25 and B46, which were each added 16 hours prior to MDR1 induction by the addition of Ara-C or TPA. Cells were incubated overnight (TPA) or for 10 hours (Ara-C) at 37° C. under an atmosphere of 5% CO2 after the addition of the MDR1 inducing agents before harvesting for cDNA-PCR analysis.
In addition to these conditions, the analysis of certain drugs imposed added requirements. For experiments using calphostin C, cells were incubated under direct white light illumination. For experiments using D,L-threo-sphingosine, the cell culture medium was pre-treated with the appropriate concentration of the drug for one hour at 37° C. with continuous gentle mixing. After this pre-treatment, cells were resuspended in media supplemented with drug and incubated for 45 minutes as described above.
cDNA-PCR analyses on each culture treated with drugs, or in control cultures incubated in the absence or presence of Ara-C or TPA alone, were performed as described in Section 6.1.3 above.
To further evaluate the capacity of protein kinase inhibitors to suppress MDR1 induction by cytotoxic drugs and PKC agonists, H-9 human T cell leukemia cells were used in cDNA-PCR assays to examine induced MDR1 mRNA expression levels in the presence of such protein kinase inhibitors.

For another data set, the system named is MRP. The experiment in a line: Inhibition of MRP expression in H-9 cells. It counts as cell-based, human. On the set-up: Inhibition of MRP Expression: key to the marks not given beside the values. Here is the method: PCR was performed using the following primers: […]
(where β2 M represents β2 microglobulin). PCR was performed for β2 M experiments under a regime consisting of 1 cycle comprising denaturation at 94° C. for 3 minutes, primer annealing at 60° C. for 30 seconds, and primer extension at 72° C. for 1 minute, followed by 19 cycles comprising denaturation at 94° C. for 30 seconds, primer annealing at 60° C. for 30 seconds, and primer extension at 72° C. for 1 minute, followed by a final cycle comprising denaturation at 94° C. for 30 seconds, primer annealing at 60° C. for 30 seconds, and primer extension at 72° C. for 5 minutes.

The next data set has as its system PKC. The note with it: literature; cited from earlier work.

Sequence of P-glycoprotein (P08183 whole entry): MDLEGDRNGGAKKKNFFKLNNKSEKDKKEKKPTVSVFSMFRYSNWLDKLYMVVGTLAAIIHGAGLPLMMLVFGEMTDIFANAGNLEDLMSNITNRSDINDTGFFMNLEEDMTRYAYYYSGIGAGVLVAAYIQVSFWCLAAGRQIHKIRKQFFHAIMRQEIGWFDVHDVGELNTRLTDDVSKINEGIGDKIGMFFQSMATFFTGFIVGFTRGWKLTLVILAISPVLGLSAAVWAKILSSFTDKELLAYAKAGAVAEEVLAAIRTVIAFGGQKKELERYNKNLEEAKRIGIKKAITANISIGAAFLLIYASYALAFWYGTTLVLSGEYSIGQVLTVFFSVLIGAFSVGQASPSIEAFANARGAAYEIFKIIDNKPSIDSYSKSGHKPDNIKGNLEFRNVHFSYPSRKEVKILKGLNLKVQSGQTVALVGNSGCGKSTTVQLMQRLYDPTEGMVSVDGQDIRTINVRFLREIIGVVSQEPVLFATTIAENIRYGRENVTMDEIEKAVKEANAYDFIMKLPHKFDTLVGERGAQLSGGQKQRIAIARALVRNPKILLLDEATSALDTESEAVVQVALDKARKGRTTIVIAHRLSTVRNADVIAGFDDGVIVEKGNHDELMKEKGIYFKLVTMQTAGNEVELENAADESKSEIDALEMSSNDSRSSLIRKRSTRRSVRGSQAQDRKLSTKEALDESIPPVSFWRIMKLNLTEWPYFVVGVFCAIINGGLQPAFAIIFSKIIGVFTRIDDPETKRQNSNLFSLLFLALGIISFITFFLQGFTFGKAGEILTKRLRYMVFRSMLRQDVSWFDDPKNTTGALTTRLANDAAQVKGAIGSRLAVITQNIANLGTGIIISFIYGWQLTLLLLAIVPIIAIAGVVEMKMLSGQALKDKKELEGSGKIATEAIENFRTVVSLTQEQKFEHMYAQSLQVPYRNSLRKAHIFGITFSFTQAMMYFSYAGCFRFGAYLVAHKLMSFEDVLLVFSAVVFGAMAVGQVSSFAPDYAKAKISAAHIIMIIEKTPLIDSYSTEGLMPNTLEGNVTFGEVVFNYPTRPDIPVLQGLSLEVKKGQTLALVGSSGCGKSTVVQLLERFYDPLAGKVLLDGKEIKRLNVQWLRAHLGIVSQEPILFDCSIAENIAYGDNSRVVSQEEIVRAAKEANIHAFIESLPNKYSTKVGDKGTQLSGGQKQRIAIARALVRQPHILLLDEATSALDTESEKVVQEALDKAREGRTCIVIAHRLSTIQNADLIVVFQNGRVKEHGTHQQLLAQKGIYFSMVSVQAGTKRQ

With `O=c1[nH]cc(F)c(=O)[nH]1` [5-fluorouracil], the “MDR1 induction, mRNA and protein levels” value in the data set with MDR1 [1] is “MDR1 induction, both at the mRNA and at the protein levels, was observed”.
With `CNc1ccc2oc(C[C@H]3O[C@@]4(CC[C@H]3C)O[C@H]([C@H](C)C(=O)c3ccc[nH]3)[C@H](C)C[C@H]4C)nc2c1C(=O)O` [A23187], the “effect on P-glycoprotein activity (Rh123 accumulation)” value at P-glycoprotein (human PBL) is reported as “No apparent effects on P-glycoprotein”.
As to `CCN(CC)CCN1C(=O)c2c(c3c4cccc(Cl)c4n([C@@H]4O[C@H](CO)[C@@H](OC)[C@H](O)[C@H]4O)c3c3[nH]c4c(Cl)cccc4c23)C1=O` [BMY 27557, 8-N-(diethylaminoethyl) rebeccamycin], in the data set on tumor [2] (i.p., Schurig et al., 1990), the “optimal total dose, i.p., nine equal injections per day at 12 mg/kg/injection” value was 108 mg/kg and the “optimal total dose, i.p., single dose” value was 64 mg/kg. Further, in the data set with tumor [2], the “antitumor activity in vivo” value was “antitumor activity in vivo”.
For the molecule `CO[C@@H]1[C@H](N(C)C(=O)c2ccccc2)C[C@H]2O[C@]1(C)n1c3ccccc3c3c4c(c5c6ccccc6n2c5c31)C(=O)NC4` [CGP 41 251], in the data set on tumor [3], the “anti-tumor effect at fraction of MTD” value was 1/10 and the “maximum tolerated dose (MTD)” value was 250 mg/kg.
In the case of `CN[C@@H]1C[C@H]2O[C@@](C)([C@@H]1OC)n1c3ccccc3c3c4c(c5c6ccccc6n2c5c31)C(=O)N[C@H]4O` [UCN-01], the “antitumor activity in vivo” value in the data set with tumor [2] is on record as “antitumor activity in vivo”.
As for `COc1c(CC(C)OC(=O)Oc2ccc(O)cc2)c2c3c(CC(C)OC(=O)c4ccccc4)c(OC)c(=O)c4c(O)cc(OC)c(c5c(OC)cc(O)c(c1=O)c52)c43` (stereo not shown) [calphostin C], the “prevention of MDR1 induction by chemotherapeutic drugs” value in the data set on MDR1 [4] (1 μM with white light illumination) is recorded as “prevent MDR1 induction”. Besides, the “inhibition of Ara-C induced MDR1 expression” value is on record as “greatly reduced” in the data set on MDR1 [4] (H-9 cells, 0.1 μM with white light illumination) and “capable of inhibiting MDR1 expression” with MDR1 [4] (H-9 cells, 1 μM with white light illumination).
`COc1ccc2c(c[n+](C)c3c4cc5c(cc4ccc23)OCO5)c1OC` [chelerythrine]: in the data set on MRP (1-5 μM), the “Inhibition of MRP Expression” value is given as “++++” and the “inhibition of MRP expression” value is “strongly inhibited; also recorded: capable of inhibiting MRP expression”. The “prevention of MDR1 induction by chemotherapeutic drugs” value in the data set on MDR1 [4] (5 μM) is “prevent MDR1 induction”. Further, the “inhibition of Ara-C induced MDR1 expression” value in the data set with MDR1 [4] (H-9 cells, 1 μM and 5 μM) is listed as “Progressive dose-dependent inhibition”.
For `N.N.[Cl][Pt][Cl]` [cisplatin], the “MDR1 mRNA induction” value with MDR1 [1] (K562 cells) is reported as “induce MDR1 mRNA expression”. Moreover, the “MDR1 induction, mRNA and protein levels” value with MDR1 [1] (human leukemia and solid-tumor derived cell lines, subpopulation of treated cells) is “MDR1 induction, both at the mRNA and at the protein levels, was observed”.
As to `O=CN/C=C/c1cc(O)ccc1O` [erbstatin], the “inhibition of protein kinase C” value in the data set on PKC was “protein kinase C inhibitors”. Besides, the “antitumor activity in vivo” value in the data set on tumor [2] was “antitumor activity in vivo”.
With `COc1cc([C@@H]2c3cc4c(cc3[C@@H](O[C@@H]3O[C@@H]5CO[C@@H](C)O[C@H]5[C@H](O)[C@H]3O)[C@H]3COC(=O)[C@H]23)OCO4)cc(OC)c1O` [etoposide], the “MDR1 induction, mRNA and protein levels” value in the data set on MDR1 [1] is “MDR1 induction, both at the mRNA and at the protein levels, was observed”.
Consider `O=c1c(-c2ccc(O)cc2)coc2cc(O)cc(O)c12` [genistein], for which the “inhibition of Ara-C induced MDR1 expression” value in the data set on MDR1 [4] (150 μM) is on record as “only weakly inhibited Ara-C induced MDR1 expression”; in the data set on MDR1 [4] (H9 cells, 25 μM Ara-C 10 h, 150 μM) it was “+”.
`COC1C=CC=C(C)C(=O)NC2=CC(=O)C=C(C2=O)C(OC)C(C)CC(OC)C(OC)C(C)C=C(C)C1OC(N)=O` (stereo not shown) [herbimycin A]: the “inhibition of Ara-C induced MDR1 expression” value is recorded as “little or no capacity to inhibit Ara-C induced MDR1 expression; also recorded: ineffective at inhibiting MDR1 induction by Ara-C” in the data set with MDR1 [4] (0.35-3 μM) and “-” with MDR1 [4] (H9 cells, 25 μM Ara-C 10 h, 0.3-3 μM (12 h)).
In the case of `CN(Cc1cnc2nc(N)nc(N)c2n1)c1ccc(C(=O)N[C@@H](CCC(=O)O)C(=O)O)cc1` [methotrexate], in the data set on MDR1 [1], the “MDR1 induction, mRNA and protein levels” value was “MDR1 induction, both at the mRNA and at the protein levels, was observed”; the “MDR1 mRNA expression” value was “MDR1 mRNA expression was induced”; the “maintenance of MDR1 expression after removal of the drug” value is given as “least several weeks”.
`N#CC(C#N)=Cc1cc(O)c(O)c(O)c1` [tyrphostin A25]: the “inhibition of Ara-C induced MDR1 expression” value with MDR1 [4] (H-9 cells, 50-100 μM) is “strongly inhibit Ara-C induced MDR1 expression; also recorded: inhibit Ara-C induced MDR1 expression”.
`N#CC(=Cc1ccc(O)c(O)c1)C(=O)NCCCc1ccccc1` [tyrphostin B46]: the “inhibition of Ara-C induced MDR1 expression” value in the data set with MDR1 [4] (H-9 cells, 50-100 μM) was “strongly inhibit Ara-C induced MDR1 expression; also recorded: inhibit Ara-C induced MDR1 expression”.
For IL-1α, in the data set with P-glycoprotein, the “effect on P-glycoprotein activity (Rh123 accumulation)” value was “No apparent effects on P-glycoprotein”.
With neomycin sulfate, the “inhibition of protein kinase C” value in the data set on PKC was “protein kinase C inhibitors”. In addition, in the data set with MRP (10 mM), the “Inhibition of MRP Expression” value was “++++” and the “inhibition of MRP expression” value is recorded as “strongly inhibited; also recorded: capable of inhibiting MRP expression”. In the data set with MDR1 [4] (H-9 cells, 10 mM), the “inhibition of Ara-C induced MDR1 expression” value is “inhibit Ara-C induced MDR1 expression”.
